Data published in publication PMC6255974 (Frontiers in Pharmacology, 2018).
Where a name gives a salt, the structure may show the parent alone.

Experiments:
[1] = target: T1, human adult muscle nicotinic acetylcholine receptor αβεδ (Homo sapiens, UniProt P02708+P11230+Q04844+Q07001); experiment: ACh-evoked currents at adult muscle nAChR in Xenopus oocytes, two-electrode voltage clamp; format: cell-based; conditions: read-out: IC50 of block of ACh-evoked currents
T1 construct: expressed in transfected cells; host or cells: Xenopus laevis oocytes injected with cRNA (cDNAs in pRBG4, gifts of A. G. Engel and F. Grassi)
From the text: The deviations are represented by the standard error of the mean (SEM).

[2] = parameters: method as in Dieterich et al., 1984; conditions: humans; oral 2 × 260 mg quinine sulfate; ref Dieterich et al., 1984; cited from earlier work
[3] = tested on: neuronal rat α9α10 nAChRs; parameters: method as in Ballestero et al., 2005; conditions: ref Ballestero et al., 2005; cited from earlier work
[4] = target: human homomeric 5HT3A-receptors; parameters: method as in Thompson and Lummis, 2008; conditions: ref Thompson and Lummis, 2008; cited from earlier work
[5] = target: human heteromeric 5HT3AB-receptors; parameters: method as in Thompson and Lummis, 2008; conditions: ref Thompson and Lummis, 2008; cited from earlier work
[6] = target: human GABA(A)-receptors; parameters: method as in Thompson and Lummis, 2008; conditions: ref Thompson and Lummis, 2008; cited from earlier work
[7] = tested on: recombinant muscle receptor expressed in HEK293 cells; conditions: concentrations up to 30 μM; ref Sieb et al., 1996; cited from earlier work

T1 sequence (P02708 21-457): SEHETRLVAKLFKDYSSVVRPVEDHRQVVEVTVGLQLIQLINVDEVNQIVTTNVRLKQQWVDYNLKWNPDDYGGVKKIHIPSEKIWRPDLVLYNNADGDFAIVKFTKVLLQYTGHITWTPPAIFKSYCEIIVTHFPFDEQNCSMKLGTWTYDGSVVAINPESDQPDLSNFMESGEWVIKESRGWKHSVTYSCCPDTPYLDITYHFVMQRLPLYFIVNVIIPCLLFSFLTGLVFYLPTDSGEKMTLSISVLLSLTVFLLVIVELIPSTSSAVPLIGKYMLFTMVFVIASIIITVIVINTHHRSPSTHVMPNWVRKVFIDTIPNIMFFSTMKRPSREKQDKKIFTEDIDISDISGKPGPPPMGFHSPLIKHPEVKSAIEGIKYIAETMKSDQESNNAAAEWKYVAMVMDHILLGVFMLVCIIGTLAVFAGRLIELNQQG
T1 sequence (P11230 24-501): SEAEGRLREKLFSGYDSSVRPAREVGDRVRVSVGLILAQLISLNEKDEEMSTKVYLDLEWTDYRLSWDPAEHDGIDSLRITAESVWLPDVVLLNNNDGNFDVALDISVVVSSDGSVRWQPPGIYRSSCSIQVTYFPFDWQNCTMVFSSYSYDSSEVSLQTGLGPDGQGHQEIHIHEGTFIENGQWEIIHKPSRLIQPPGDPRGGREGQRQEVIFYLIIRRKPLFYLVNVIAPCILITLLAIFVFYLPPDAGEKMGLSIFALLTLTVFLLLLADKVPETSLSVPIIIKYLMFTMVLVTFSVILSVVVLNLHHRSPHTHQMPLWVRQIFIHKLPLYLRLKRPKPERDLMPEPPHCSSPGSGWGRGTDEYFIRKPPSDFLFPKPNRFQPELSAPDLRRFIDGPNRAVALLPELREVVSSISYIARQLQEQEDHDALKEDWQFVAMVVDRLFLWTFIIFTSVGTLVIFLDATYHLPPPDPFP
T1 sequence (Q07001 22-517): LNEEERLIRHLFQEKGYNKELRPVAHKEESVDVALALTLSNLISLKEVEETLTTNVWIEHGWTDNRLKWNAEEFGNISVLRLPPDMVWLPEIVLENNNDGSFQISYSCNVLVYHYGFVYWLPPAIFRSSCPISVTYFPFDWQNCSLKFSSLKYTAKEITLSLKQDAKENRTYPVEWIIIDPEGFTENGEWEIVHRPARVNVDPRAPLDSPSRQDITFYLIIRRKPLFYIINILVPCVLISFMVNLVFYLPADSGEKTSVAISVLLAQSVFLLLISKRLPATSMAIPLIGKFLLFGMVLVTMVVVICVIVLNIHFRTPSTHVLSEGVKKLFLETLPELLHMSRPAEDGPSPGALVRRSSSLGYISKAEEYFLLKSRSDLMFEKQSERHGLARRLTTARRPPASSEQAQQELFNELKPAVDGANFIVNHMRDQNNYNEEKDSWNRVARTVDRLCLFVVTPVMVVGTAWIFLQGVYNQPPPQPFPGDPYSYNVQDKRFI
T1 sequence (Q04844 21-493): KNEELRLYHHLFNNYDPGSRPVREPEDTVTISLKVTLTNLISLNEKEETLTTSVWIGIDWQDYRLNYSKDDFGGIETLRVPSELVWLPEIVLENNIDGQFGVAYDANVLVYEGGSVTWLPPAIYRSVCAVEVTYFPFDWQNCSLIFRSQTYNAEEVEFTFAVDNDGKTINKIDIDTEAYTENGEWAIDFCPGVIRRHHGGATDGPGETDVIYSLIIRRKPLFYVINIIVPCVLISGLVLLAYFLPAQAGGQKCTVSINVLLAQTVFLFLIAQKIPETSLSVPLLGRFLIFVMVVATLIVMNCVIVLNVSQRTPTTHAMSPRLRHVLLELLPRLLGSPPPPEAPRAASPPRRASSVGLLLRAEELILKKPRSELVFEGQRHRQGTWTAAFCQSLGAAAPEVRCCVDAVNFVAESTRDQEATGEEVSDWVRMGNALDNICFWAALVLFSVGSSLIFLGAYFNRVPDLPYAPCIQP

Compound: CCN(CC)CCCC(C)Nc1ccnc2cc(Cl)ccc12 (stereo not shown) [chloroquine]
- IC50 [1]: 2.22 µM

Compound: C=C[C@H]1C[N@@]2CC[C@H]1C[C@H]2[C@H](O)c1ccnc2ccc(OC)cc12 [quinine sulfate]
- Time of peak plasma concentration after intake [2]: about 2 h

Compound: C=C[C@H]1C[N@@]2CC[C@H]1C[C@H]2[C@H](O)c1ccnc2ccc(OC)cc12 [quinine]
- IC50 [3]: ~1 µM
- IC50 [4]: ~1 µM
- IC50 [5]: ~16 µM
- IC50 [6]: ~1600 µM
- Inhibition of the binding of α-bungarotoxin [7]: could not inhibit
